# Where “and” joins values, the source holds several entries; their conditions need not be identical. Identical values can stand only once.
# Assays:
# [1] = test system: aqueous solutions of biosimilar AVASTIN®; experiment: Viscosity of concentrated aqueous solutions of biosimilar AVASTIN with ionic liquids (mVROC microfluidic viscometer); assay type: physicochemical; details: 25° C., pH 7
# Experimental: (§1) All viscosities of well-mixed aqueous mAb solutions were measured using either a mVROC microfluidic viscometer (RheoSense) or a DV2T cone and plate viscometer (Brookfield; “C & P”) after a 5 minute equilibration at 25 °C (unless otherwise indicated). The mVROC viscometer was equipped with an “A” or “B” chip, each manufactured with a 50 micron channel. Typically, 0.10 mL of protein solution was back-loaded into a gastight microlab instrument syringe (Hamilton; 100 μL), affixed to the chip, and measured at multiple flow rates, approximately 20%, 40%, and 60% of the maximum pressure for each chip. […] An average absolute viscosity and standard deviation was then calculated from at least these three measurements. The C & P viscometer was equipped with a CPE40 or CPE52 spindle (cone angle of 0.8° and 3.0°, respectively) and 0.50 mL samples were measured at multiple shear rates between 2 and 400 s^−1. […] An extrapolated zero-shear viscosity was then determined from a plot of dynamic viscosity versus shear rate for the samples measured on a DV2T cone and plate viscometer. The extrapolated zero-shear viscosities reported are the average and standard deviation of at least three measurements.
# (§2) First, Polysorbate 20 was removed using DETERGENT-OUT® TWEEN Medi Columns (G-Biosciences). […] The dried protein cakes, containing protein and buffer salts or viscosity-reducing ionic liquid, were reconstituted to a final volume of approximately 0.10-1.30 mL. […] Then, an appropriate amount of viscosity-reducing ionic liquid solution (pH 7.0) was added to each aliquot such that upon reconstitution with water, the final excipient concentration was 0.1-0.5 M. The protein solutions were then freeze-dried. The dried protein cakes, containing protein and viscosity-reducing ionic liquid (and a negligible amount of buffer salts) were reconstituted to a final volume of approximately 0.1 mL and viscosity-reducing ionic liquid concentration as indicated in the tables below. The final concentration of mAb in solution was determined by light absorbance at 280 nm using an experimentally determined extinction coefficient of 1.7 L/g·cm and viscosities reported were measured on a RheoSense mVROC microfluidic viscometer.
# [2] = test system: aqueous solutions of HERCEPTIN®; experiment: Viscosity of concentrated aqueous solutions of HERCEPTIN with ionic liquids (mVROC microfluidic viscometer); assay type: physicochemical; details: for Viscosity: 25° C., pH 7
# Description: The protein was formulated either with phosphate buffer or with various viscosity-reducing ionic liquids at concentrations in the table listed below.
# [3] = test system: aqueous solutions of TYSABRI®; experiment: Viscosity of concentrated aqueous solutions of TYSABRI with excipients (mVROC microfluidic viscometer); assay type: physicochemical; details: for Viscosity: 25° C., pH 7
# Experimental: as §1
# The dried protein cakes, containing protein and buffer salts or viscosity-reducing ionic liquid, were reconstituted to a final volume of approximately 0.10-1.30 mL. […] Then, an appropriate amount of viscosity-reducing ionic liquid solution (pH 7.0) was added to each aliquot such that upon reconstitution with water, the final excipient concentration was 0.1-0.5 M. The protein solutions were then freeze-dried. The dried protein cakes, containing protein and viscosity-reducing ionic liquid (and a negligible amount of buffer salts) were reconstituted to a final volume of approximately 0.1 mL and viscosity-reducing ionic liquid concentration as indicated in the tables below. The final concentration of mAb in solution was determined by light absorbance at 280 nm using an experimentally determined extinction coefficient of 1.7 L/g·cm and viscosities reported were measured on a RheoSense mVROC microfluidic viscometer.
# (§3) Viscosities were measured using a RheoSense mVROC microfluidic viscometer equipped with an “A” or “B” chip.
# [4] = test system: aqueous solutions of biosimilar RITUXAN®; experiment: Viscosity of concentrated aqueous solutions of biosimilar RITUXAN with BIM (mVROC microfluidic viscometer); assay type: physicochemical; details: 25° C., pH 7
# [5] = test system: aqueous solutions of VECTIBIX®; experiment: Viscosity of concentrated aqueous solutions of VECTIBIX with and without BIM (mVROC microfluidic viscometer); assay type: physicochemical; details: 0.50M BIM, 25° C., pH 7
# [6] = test system: aqueous solutions of REMICADE®; experiment: Viscosity of concentrated aqueous solutions of REMICADE with and without BIM (mVROC microfluidic viscometer); assay type: physicochemical
# Experimental: A commercially-obtained biosimilar AVASTIN® containing pharmaceutical excipients (Polysorbate 20, phosphate and citrate buffers, mannitol, and NaCl) was purified. […] For samples containing 4-ethyl-4-methylmorpholinium methyl carbonate (EMMC), protein was thoroughly buffer exchanged into 2 mM PB (pH 7.0). For samples buffer exchanged into 20 mM PB (PB control samples) or 20 mM viscosity-reducing ionic liquid, the collected protein solution was freeze-dried. […] Samples buffer exchanged into 2 mM PB were first aliquoted.
# [7] = test system: aqueous solutions of biosimilar ERBITUX®; experiment: Viscosity of concentrated aqueous solutions of biosimilar ERBITUX at various BIM concentrations (mVROC microfluidic viscometer); assay type: physicochemical; details: for Viscosity: 25° C., pH 7
# Experimental: All viscosities of well-mixed aqueous mAb solutions were measured using either a mVROC microfluidic viscometer (RheoSense) or a DV2T cone and plate viscometer (Brookfield; “C & P”) after a 5 minute equilibration at 25 °C (unless otherwise indicated). The mVROC viscometer was equipped with an “A” or “B” chip, each manufactured with a 50 micron channel. Typically, 0.10 mL of protein solution was back-loaded into a gastight microlab instrument syringe (Hamilton; 100 μL), affixed to the chip, and measured at multiple flow rates, approximately 20%, 40%, and 60% of the maximum pressure for each chip. […] An average absolute viscosity and standard deviation was then calculated from at least these three measurements. The C & P viscometer was equipped with a CPE40 or CPE52 spindle (cone angle of 0.8° and 3.0°, respectively) and 0.50 mL samples were measured at multiple shear rates between 2 and 400 s^−1. Specifically, samples were measured for 30 seconds each at 22.58, 24.38, 26.25, 28.13, 30, 31.88, 45, 67.5, 90, 112.5, 135, 157.5, 180, 202.5, 247, 270, 292.5, 315, 337.5, 360, 382, 400 s^−1, starting at a shear rate that gave at least 10% torque, and continuing until instrument torque reached 100%. An extrapolated zero-shear viscosity was then determined from a plot of dynamic viscosity versus shear rate for the samples measured on a DV2T cone and plate viscometer. The extrapolated zero-shear viscosities reported are the average and standard deviation of at least three measurements.
# as §2, §3
# Sprague-Dawley rats = experiment: Subcutaneous injection toxicity and irritation study (Draize evaluation scores, microscopic examination of injection sites); assay type: in vivo, rat
# Experimental: Clinical observations were recorded for any pharmaco-toxicological signs at pre-dose, immediately post-dose, at 1 and 4 hours (±15 minutes) post-dose, and daily thereafter. Irritation, if any, at injection sites was scored using the Draize evaluation scores pre-dose, immediately post-dose, at 1 hour (±15 minutes) post dose, and prior to sacrifice.
# [8] = test system: respiratory syncytial virus infection; details: two Phase III clinical trials, pediatric population; cited from earlier work
# [9] = studies evaluating long-term clinical outcomes; cited from earlier work
# [10] = [IL] 0.5 M, [Protein] 230 mg/mL
compound,measurement,setting,value
4-ethyl-4-methylmorpholinium methylcarbonate [EMMC],Viscosity,"[1]; [IL] 0.4 M, [Protein] 217 mg/mL",38.7 ± 0.3 cP
same,Viscosity reduction,[2]; 0.10 M EMMC,~3 fold
same,Viscosity,"[2]; [IL] 0.10 M, [Protein] 253 mg/mL",60.2 ± 4.3 cP
same,Viscosity reduction,[3]; 0.10 M EMMC,up to 7 fold
same,Viscosity,"[3]; [IL] 0.1 M, [Protein] 232 mg/mL",24.7 ± 0.3 cP
"Cl.N=C(N)NCCC[C@H](N)C(=O)O [Arg HCl, Arginine-HCl, reference compound]",Viscosity,"[3]; [IL] 0.25 M, [Protein] 228 mg/mL",37 ± 0.1 cP
"CCCCn1cc[n+](CCCCS(=O)(=O)[O-])c1 [BIM, 4-(3-butyl-1-imidazolio)-1-butane sulfonate]",Viscosity,"[4]; 0.40M BIM, [Protein] 191 ± 2 mg/mL",43.9 ± 1.6 cP
same,Viscosity,"[4]; 0.40M BIM, [Protein] 203 ± 4 mg/mL",65.4 ± 0.4 cP
same,Viscosity,"[4]; 0.40M BIM, [Protein] 213 ± 4 mg/mL",75.4 ± 1.0 cP
same,Viscosity,"[4]; 0.50M BIM, [Protein] 213 ± 4 mg/mL",83.9 ± 0.8 cP
same,Viscosity,[5]; VECTIBIX ® 233 ± 4 mg/mL,51.1 ± 3.7 cP
same,Viscosity,[5]; VECTIBIX ® 291 ± 3 mg/mL,170 ± 2 cP
same,Viscosity,"[1]; [IL] 0.2 M, [Protein] 215 mg/mL",61.8 ± 0.3 cP
same,Viscosity,"[1]; [IL] 0.4 M, [Protein] 215 mg/mL",47.3 ± 2.3 cP
same,Viscosity,"[1]; [IL] 0.5 M, [Protein] 215 mg/mL",41.9 ± 0.8 cP
same,Viscosity,"[6]; 0.50M BIM, REMICADE ® 222 ± 6 mg/mL, 25° C., pH 7",71.2 ± 2.9 cP
same,Viscosity reduction,"[6]; 0.50 M BIM, maximum over the proteins examined (REMICADE and VECTIBIX)",up to 22 fold
same,Viscosity,"[7]; [BIM] 0.4 M, [biosimilar ERBITUX ®] 270 mg/mL",86.7 ± 2.1 cP
same,Viscosity,"[7]; [BIM] 0.5 M, [biosimilar ERBITUX ®] 257 mg/mL",75.0 ± 0.3 cP
same,Viscosity,"[7]; [BIM] 0.75 M, [biosimilar ERBITUX ®] 263 mg/mL",148 ± 2 cP
same,Viscosity,"[7]; [BIM] 1.0 M, [biosimilar ERBITUX ®] 279 mg/mL",145 ± 2 cP
same,Viscosity,"[7]; [BIM] […], [biosimilar ERBITUX ®] 267 mg/mL",347 ± 5 cP
same,Dependence of viscosity-lowering effect on BIM concentration,"[7]; various concentrations of BIM, 0.3-[…]",dose dependent manner up to about 0.50 M
same,Viscosity,"[2]; [IL] 0.40 M, [Protein] 223 mg/mL",43.8 ± 0.4 cP
same,Observed consequences of injections compared with saline,"Sprague-Dawley rats; 0.5 mL of 0.25 M BIM subcutaneously vs phosphate-buffered saline, throughout the study",macroscopically similar
same,Irritation at injection sites,"Sprague-Dawley rats; 0.5 mL of 0.25 M BIM subcutaneously, 1-3 daily injections",no irritation to slight irritation
same,Edema scores (Draize) at injection sites,"Sprague-Dawley rats; 0.5 mL of 0.25 M BIM subcutaneously, 1-3 daily injections, various time points",0-2
same,Microscopic examination of injection sites,"Sprague-Dawley rats; 0.5 mL of 0.25 M BIM subcutaneously, no longer evident by day 4","very minor, clinically insignificant, irritative effect"
same,Viscosity,"[3]; [IL] 0.4 M, [Protein] 234 mg/mL",43.6 ± 1.1 cP
"CCCCn1cc[n+](C)c1.CS(=O)(=O)[O-] [BMI Mes, 1-butyl-3-methylimidazolium methanesulfonate]",Viscosity,"[1]; [IL] 0.4 M, [Protein] 214 mg/mL",36.3 ± 0.2 cP
same,Viscosity,"[1]; [IL] 0.4 M, [Protein] 229 mg/mL",69.2 ± 5.2 cP
same,Viscosity,"[1]; [IL] 0.5 M, [Protein] 221 mg/mL",46.5 ± 1.7 cP
same,Viscosity,[1]; [10],82.0 ± 3.0 cP
same,Viscosity,"[2]; [IL] 0.40 M, [Protein] 227 mg/mL",47.8 ± 1.0 cP
same,Viscosity,"[3]; [IL] 0.4 M, [Protein] 232 mg/mL",35.2 ± 5.0 cP
"CCCC[N+]1(C)CCCC1.[Cl-] [BMP Chloride, 1-butyl-1-methylpyrrolidinium chloride]",Viscosity,"[1]; [IL] 0.4 M, [Protein] 227 mg/mL",63.0 ± 8.4 cP
same,Viscosity,[1]; [10],60.8 ± 0.1 cP
same,Viscosity,"[2]; [IL] 0.40 M, [Protein] 210 mg/mL",55.6 ± 2.0 cP
same,Viscosity,"[2]; [IL] 0.40 M, [Protein] 244 mg/mL",99.2 ± 2.2 cP
same,Viscosity,"[3]; [IL] 0.4 M, [Protein] 249 mg/mL",42.7 ± 1.9 cP
palivizumab: humanized mAb against an epitope in the A antigenic site of the F protein of respiratory syncytial virus,Reduction of the risk of hospitalization due to respiratory syncytial virus infection,[8],55% and 45%
vedolizumab: mAb being developed by Millennium Pharmaceuticals for ulcerative colitis and Crohn's disease,Patients achieving clinical remission,[9],~60%

# From US11986526B2, “Liquid protein formulations containing 4-ethyl-4-methylmorpholinium methylcarbonate (EMMC)” (Eagle Biologics, Inc., priority 2013, dated 2024)
